# Assay results: ChEMBL document CHEMBL1201862, “PubChem BioAssay data set” (2004)
#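 Cells were grown in 96-well plates and exposed to each compound for 48 hours at five concentrations; endpoints were interpolated linearly between bracketing concentrations, or set to the highest concentration if not reached. GI50 = concentration required for 50% inhibition of growth.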 The source made the active and inactive calls. Rule as the data show it: active = GI50 up to about 1.1 µM and inactive = higher.
# Tests used:
# Assay in all cases: DTP human tumour cell line panel, 48 h
# KM12 = tested on: KM12
# TK-10 = tested on: TK-10
# UACC-257 = tested on: UACC-257
# U-251 = tested on: U-251
# EKVX = tested on: EKVX
# RXF 631 = tested on: RXF 631
# NCI-H460 = tested on: NCI-H460
# 786-0 = tested on: 786-0
# UO-31 = tested on: UO-31
# IGROV-1 = tested on: IGROV-1
# A498 = tested on: A498
# SNB-19 = tested on: SNB-19
# M14 = tested on: M14
# SNB-78 = tested on: SNB-78
# M19-MEL = tested on: M19-MEL
# CAKI-1 = tested on: CAKI-1
# SK-OV-3 = tested on: SK-OV-3
# SN12C = tested on: SN12C
# NCI-H226 = tested on: NCI-H226
# KM-20L2 = tested on: KM-20L2
# HCT-15 = tested on: HCT-15
# NCI-H522 = tested on: NCI-H522
# A549 = tested on: A549
# UACC-62 = tested on: UACC-62
# OVCAR-3 = tested on: OVCAR-3
# SW-620 = tested on: SW-620
# DLD-1 = tested on: DLD-1
# SF-539 = tested on: SF-539
# ACHN = tested on: ACHN
# SK-MEL-5 = tested on: SK-MEL-5
# SK-MEL-2 = tested on: SK-MEL-2
# SR = tested on: SR
# OVCAR-8 = tested on: OVCAR-8
# DMS-114 = tested on: DMS-114
# HCT-116 = tested on: HCT-116
# Malme-3M = tested on: Malme-3M
# SF-268 = tested on: SF-268
# NCI-H23 = tested on: NCI-H23
# SF-295 = tested on: SF-295
# HT-29 = tested on: HT-29
# HOP-62 = tested on: HOP-62
# OVCAR-4 = tested on: OVCAR-4
# LOX IMVI = tested on: LOX IMVI
# OVCAR-5 = tested on: OVCAR-5
# LXFL 529 = tested on: LXFL 529
# COLO 205 = tested on: COLO 205
# MDA-N = tested on: MDA-N
# BT-549 = tested on: BT-549
# PC-3 = tested on: PC-3
# HL-60 = tested on: HL-60
# MOLT-4 = tested on: MOLT-4
# RPMI-8226 = tested on: RPMI-8226
# XF498 = tested on: XF498
# SNB-75 = tested on: SNB-75
# HOP-92 = tested on: HOP-92
# NCI/ADR-RES = tested on: NCI/ADR-RES
# T47D = tested on: T47D
# CCRF-CEM = tested on: CCRF-CEM
# K562 = tested on: K562
# DU-145 = tested on: DU-145
# DMS-273 = tested on: DMS-273
# MDA-MB-231 = tested on: MDA-MB-231
# MCF7 = tested on: MCF7
# HCC 2998 = tested on: HCC 2998
# SK-MEL-28 = tested on: SK-MEL-28
# MDA-MB-435 = tested on: MDA-MB-435
# RXF 393 = tested on: RXF 393
# HOP-18 = tested on: HOP-18
# Hs-578T = tested on: Hs-578T
smiles,measurement,setting,value
O=C1/C=C(/c2ccc(O)cc2)[C@@H](O)Cc2ccc(O)cc2O1,GI50,KM12,88.1 µM (inactive)
same,GI50,TK-10,> 100 µM (inactive)
same,GI50,UACC-257,> 100 µM (inactive)
same,GI50,U-251,> 100 µM (inactive)
same,GI50,EKVX,> 100 µM (inactive)
same,GI50,RXF 631,38.2 µM (inactive)
same,GI50,NCI-H460,62.4 µM (inactive)
same,GI50,786-0,> 100 µM (inactive)
same,GI50,UO-31,85.3 µM (inactive)
same,GI50,IGROV-1,> 100 µM (inactive)
same,GI50,A498,2.25 µM (inactive)
same,GI50,SNB-19,93.5 µM (inactive)
same,GI50,M14,> 100 µM (inactive)
same,GI50,SNB-78,41.8 µM (inactive)
same,GI50,M19-MEL,> 100 µM (inactive)
same,GI50,CAKI-1,29.1 µM (inactive)
same,GI50,SK-OV-3,35.7 µM (inactive)
same,GI50,SN12C,85.9 µM (inactive)
same,GI50,NCI-H226,0.859 µM (active)
same,GI50,KM-20L2,> 100 µM (inactive)
same,GI50,HCT-15,> 100 µM
same,GI50,NCI-H522,54.8 µM (inactive)
same,GI50,A549,56.1 µM (inactive)
same,GI50,UACC-62,31 µM (inactive)
same,GI50,OVCAR-3,> 100 µM (inactive)
same,GI50,SW-620,> 100 µM (inactive)
same,GI50,DLD-1,> 100 µM (inactive)
same,GI50,SF-539,52.5 µM (inactive)
same,GI50,ACHN,92.7 µM (inactive)
same,GI50,SK-MEL-5,> 100 µM (inactive)
same,GI50,SK-MEL-2,> 100 µM (inactive)
same,GI50,SR,56.1 µM (inactive)
same,GI50,OVCAR-8,> 100 µM (inactive)
same,GI50,DMS-114,51.3 µM (inactive)
same,GI50,HCT-116,> 100 µM (inactive)
same,GI50,Malme-3M,> 100 µM (inactive)
same,GI50,SF-268,45.1 µM (inactive)
same,GI50,NCI-H23,> 100 µM (inactive)
same,GI50,SF-295,93.1 µM (inactive)
same,GI50,HT-29,> 100 µM (inactive)
same,GI50,HOP-62,61.4 µM (inactive)
same,GI50,OVCAR-4,> 100 µM (inactive)
same,GI50,LOX IMVI,92.3 µM (inactive)
same,GI50,OVCAR-5,> 100 µM (inactive)
same,GI50,LXFL 529,63.7 µM (inactive)
same,GI50,COLO 205,> 100 µM (inactive)
COC(COC(N)=O)C1=C(N2CC2)C(=O)C(C)=C(N2CC2)C1=O (centres undefined) [CARBOQUONE],GI50,MDA-N,0.108 µM (active)
same,GI50,BT-549,0.103 µM (active)
same,GI50,KM12,0.122 µM (active)
same,GI50,TK-10,0.239 µM (active)
same,GI50,PC-3,0.213 µM (active)
same,GI50,HL-60,< 0.0114 µM (active)
same,GI50,UACC-257,0.126 µM (active)
same,GI50,U-251,0.0366 µM (active)
same,GI50,MOLT-4,0.0418 µM (active)
same,GI50,EKVX,0.47 µM (active)
same,GI50,NCI-H460,< 0.01 µM (active)
same,GI50,786-0,0.0201 µM (active)
same,GI50,UO-31,0.0307 µM (active)
same,GI50,IGROV-1,0.197 µM (active)
same,GI50,A498,0.0904 µM (active)
same,GI50,SNB-19,0.0646 µM (active)
same,GI50,M14,0.0395 µM (active)
same,GI50,SNB-78,0.574 µM (active)
same,GI50,M19-MEL,0.0968 µM (active)
same,GI50,CAKI-1,< 0.0119 µM (active)
same,GI50,SK-OV-3,0.0718 µM (active)
same,GI50,SN12C,< 0.0266 µM (active)
same,GI50,NCI-H226,0.0719 µM (active)
same,GI50,KM-20L2,0.0608 µM (active)
same,GI50,HCT-15,0.0594 µM
same,GI50,NCI-H522,0.0377 µM (active)
same,GI50,A549,0.0185 µM (active)
same,GI50,RPMI-8226,0.117 µM (active)
same,GI50,XF498,0.154 µM (active)
same,GI50,UACC-62,< 0.0156 µM (active)
same,GI50,OVCAR-3,0.0607 µM (active)
same,GI50,SNB-75,0.0246 µM (active)
same,GI50,SW-620,0.0302 µM (active)
same,GI50,DLD-1,0.113 µM (active)
same,GI50,HOP-92,0.219 µM (active)
same,GI50,NCI/ADR-RES,0.0241 µM (active)
same,GI50,SF-539,< 0.0198 µM (active)
same,GI50,T47D,0.0435 µM (active)
same,GI50,ACHN,< 0.01 µM (active)
same,GI50,SK-MEL-5,0.046 µM (active)
same,GI50,SK-MEL-2,0.193 µM (active)
same,GI50,CCRF-CEM,0.0355 µM (active)
same,GI50,SR,< 0.0221 µM (active)
same,GI50,OVCAR-8,0.0318 µM (active)
same,GI50,K562,0.0352 µM (active)
same,GI50,DMS-114,0.063 µM (active)
same,GI50,HCT-116,0.0284 µM (active)
same,GI50,DU-145,< 0.01 µM (active)
same,GI50,Malme-3M,0.0692 µM (active)
same,GI50,SF-268,< 0.016 µM (active)
same,GI50,DMS-273,< 0.01 µM (active)
same,GI50,NCI-H23,< 0.0148 µM (active)
same,GI50,MDA-MB-231,0.292 µM (active)
same,GI50,SF-295,0.0178 µM (active)
same,GI50,HT-29,0.0342 µM (active)
same,GI50,HOP-62,< 0.0154 µM (active)
same,GI50,OVCAR-4,0.126 µM (active)
same,GI50,LOX IMVI,< 0.0144 µM (active)
same,GI50,OVCAR-5,0.106 µM (active)
same,GI50,LXFL 529,0.196 µM (active)
same,GI50,MCF7,< 0.01 µM (active)
same,GI50,HCC 2998,0.131 µM (active)
same,GI50,COLO 205,0.113 µM (active)
same,GI50,SK-MEL-28,0.172 µM (active)
same,GI50,MDA-MB-435,0.0359 µM (active)
same,GI50,RXF 393,0.107 µM (active)
same,GI50,HOP-18,0.199 µM (active)
same,GI50,Hs-578T,0.218 µM (active)
